This is an account of results in patent US20230364272A1, “THERANOSTIC COMPOUNDS” (NRF ITHEMBA LABS, priority 2020, published 2023).

Holding throughout (type): cell-based
Test [1] concerns esophageal (WHCO5) cancer cell line. The test is described as follows: ADAM10 biological activity, EC50 in WHCO5 cells.
The subject of test [2] is cervical (HeLa) cancer cell line. The test is described as follows: ADAM10 biological activity, EC50 in HeLa cells.
The subject of test [3] is esophageal (WHCO5) cancer cell line. The test is described as follows: Radioactivity uptake of ^123I radiolabeled ADAM10 inhibitor in WHCO5 cells. The note with it: 3 mCi (title); for Average counts per min: 1 h incubation; for A(0) per well × Eff corr: decay corrected.
Test [4] has as its system cervical (HeLa) cancer cell line. Nature of the test: Radioactivity uptake of ^123I radiolabeled ADAM10 inhibitor in HeLa cells. The note with it: 3 mCi (title); for Average counts per min: 1 h incubation; for A(0) per well × Eff corr: decay corrected.
Test [5] relates to esophageal (WHCO5) cancer cell line. Nature of the test: Radioactivity uptake of ^123I radiolabeled ADAM10 inhibitor in WHCO5 cells. The note with it: for uptake (in words): WHCO5, Table 1 / FIG. 2 experiment. The method, then:
(§1) In order to test the biological activity of the radiolabeled compound in vitro, two cell lines were chosen as esophageal (WHCO5) and cervical (HeLa) cancer cell lines (using [^123I]Nal as the control) and the radioactivity uptake was measured using a bore-hole or scintillation counter. […] The well plates were incubated for one hour in a humidified CO2 incubator at 37° C. The measurements were performed with a ^123I Multi Channel Analyzer, and during the incubation time, a calibration and counting efficiency determination was carried out on the channel.^33
(§2) After the one-hour incubation period, the growth medium was aspirated, leaving the adherent cell monolayers intact and the cell cultures rinsed twice with cold PBS to remove any residual extracellular radioactivity. The cell monolayers were lysed with 1 mL 1M NaOH, and 1 mL of each lysed suspension was transferred to a clean test tube. The data is presented as an average of triplicates and was corrected for ^123I decay using Eff Corr as the correcting factor, which considers the half-life and decay of the radionuclide over a specific time interval.
(§3) […] Data represents an average and standard deviation of 12 replicates using 0.3 μCi of ^123I-SN-311 and 200000 cells.

Test [6] deals with cervical (HeLa) cancer cell line. Nature of the test: Radioactivity uptake of ^123I radiolabeled ADAM10 inhibitor in HeLa cells. Particulars: for uptake (in words): Table 1 / FIG. 2 experiment. The method, then:
as §1, §2, §3

SMILES strings stand for the structures.

Consider `CNC(=O)[C@@H](NC(=O)[C@H](CCCc1ccccc1)[C@@H](C)N(O)C=O)C(C)(C)C` [SN-311], for which the “EC50 compared with G1254023X” value in test [1] and in test [2] was “fall within the 95% confidence interval of that of G1254023X” in each case.
On to `[123I-].[Na+]` [[^123I]NaI, reference compound], for which the Bq per well is 297 Bq in test [3] (WHCO5, 50000 cells); 308 Bq in test [3] (WHCO5, 100000 cells); 317 Bq in test [3] (WHCO5, 150000 cells); 357 Bq in test [3] (WHCO5, 200000 cells); 148 Bq in test [4] (50000 cells); 149 Bq in test [4] (100000 cells). Also, the Bq per well was 173 Bq in test [4] (150000 cells) and 161 Bq in test [4] (200000 cells). In addition, the “Average counts per min” value is recorded as 3968 counts per min in test [3] (WHCO5, 50000 cells); 4116 counts per min in test [3] (WHCO5, 100000 cells); 4239 counts per min in test [3] (WHCO5, 150000 cells); 4772 counts per min in test [3] (WHCO5, 200000 cells); 1974 counts per min in test [4] (50000 cells); 1991 counts per min in test [4] (100000 cells). In addition, the entries for the “Average counts per min” value in test [4] (150000 cells) and in test [4] (200000 cells) were 2308 counts per min and 2147 counts per min, respectively. In addition, the “A(0) per well × Eff corr” value in test [3] (WHCO5, 50000 cells) turned out to be 17807; in test [3] (WHCO5, 100000 cells) it was 18470; in test [3] (WHCO5, 150000 cells) it was 19021; in test [3] (WHCO5, 200000 cells), 21415; in test [4] (50000 cells), 8857; in test [4] (100000 cells), 8934. For the same molecule, the “A(0) per well × Eff corr” value in test [4] (150000 cells) turned out to be 10355; in test [4] (200000 cells), 9635. For the same molecule, the “uptake (in words)” value in test [5] and in test [6] was “minimal uptake” throughout.
On to `CNC(=O)C(NC(=O)C(CCCc1ccc([123I])cc1)C(C)N(O)C=O)C(C)(C)C` (centres unmarked) [^123I-SN-311], for which the Bq per well in test [3] (WHCO5, 50000 cells) came out at 698 Bq; in test [3] (WHCO5, 100000 cells), 988 Bq; in test [3] (WHCO5, 150000 cells), 1202 Bq; in test [3] (WHCO5, 200000 cells), 1421 Bq; in test [4] (50000 cells), 455 Bq; in test [4] (100000 cells), 567 Bq. Further, the Bq per well stood at 691 Bq in test [4] (150000 cells) and 864 Bq in test [4] (200000 cells). For the same molecule, the “Average counts per min” value was 9337 counts per min in test [3] (WHCO5, 50000 cells); 13207 counts per min in test [3] (WHCO5, 100000 cells); 16075 counts per min in test [3] (WHCO5, 150000 cells); 18996 counts per min in test [3] (WHCO5, 200000 cells); 6080 counts per min in test [4] (50000 cells); 7582 counts per min in test [4] (100000 cells). In addition, the entries for the “Average counts per min” value in test [4] (150000 cells) and in test [4] (200000 cells) were 9236 counts per min and 11555 counts per min, respectively. For the same molecule, the “A(0) per well × Eff corr” value in test [3] (WHCO5, 50000 cells) is given as 41898; in test [3] (WHCO5, 100000 cells), 59265; in test [3] (WHCO5, 150000 cells), 72135; in test [3] (WHCO5, 200000 cells), 85240; in test [4] (50000 cells) it was 27284; in test [4] (100000 cells), 34023. Moreover, the “A(0) per well × Eff corr” value in test [4] (150000 cells) was 41445; in test [4] (200000 cells) it was 51852. The “uptake of the radiolabeled compound” value in test [5] (WHCO5, 0.3 μCi per well, 200000 cells, average of 12 replicates) is listed as 127.63 Bq; in test [6] (0.3 μCi per well, 200000 cells, average of 12 replicates), 81.76 Bq. The “uptake (in words)” value in test [5] and in test [6] was “clear uptake” throughout.
